# Where two headings read alike, the source gives them in different places.
# System: LPS-activated TLR4 signal
# Experiment: LPS-activated TLR4 signaling in RAW264.7 cells (immunoblotting)
# Format: cell-based, mouse
# Conditions: for effect on TLR4 expression: 0.5 μM or 1 μM, LPS-treated RAW264.7, 24 hrs; for inhibition of LPS-increased pTAK1, TRAF6, NFκB p50, phospho-NF-κB p65, pCREB, HMGB1, MCP-1 and TNFα (overall): 0.5-1.0 μM; for inhibition of LPS-increased pTAK1, TRAF6, NFκB p50, phospho-NF-κB p65, pCREB, HMGB1, MCP-1 and TNFα (overall) / inhibition at 0.5 µM / inhibition at 1 µM / inhibition of LPS-induced NFκB p50 / inhibition of the effect of LPS activation of TLR4 on MCP-1 / inhibition of the effect of LPS activation on TRAF6 / inhibition of the effect of LPS activation on pTAK1 / inhibition of the effect of LPS on HMGB1 / inhibition of the effect of LPS on TNFα / inhibition of the effect of LPS on pCREB / inhibition of the effect of LPS on phospho-NF-κB p65: RAW264.7; for inhibition at 0.5 µM / inhibition at 1 µM: Mus musculus; for inhibition at 0.5 µM / inhibition at 1 µM / inhibition of LPS-induced NFκB p50 / inhibition of the effect of LPS activation of TLR4 on MCP-1 / inhibition of the effect of LPS activation on TRAF6 / inhibition of the effect of LPS activation on pTAK1 / inhibition of the effect of LPS on HMGB1 / inhibition of the effect of LPS on TNFα / inhibition of the effect of LPS on pCREB / inhibition of the effect of LPS on phospho-NF-κB p65: LPS 1 μg/ml, 24 hrs
# Protocol: Cells and reagents. Mouse monocyte macrophage ceils (RAW264.7) that innately express the TLR4 receptor were obtained from American Type Culture Collection (Manassas, Va., USA). The cells were grown in Dulbecco's modified Eagle's medium (DMEM) (Gibco; Gaithersburg, Md., USA) supplemented with 10% fetal bovine serum (FBS, Gemini, West Sacramento, Calif., USA), 1% penicillin/streptomycin 100× (Gibco) at 37° C. in a 5% CO2 humidified atmosphere. The TLR4-specific ligand IPS was purchased from Sigma-Aldrich (St. Louis, Mo., USA) (Cat. #L3024) and added to the cultures (1 μg/ml) 24 hrs before cell collection.
# Immunoblotting. The assay used for RAW264.7 cell lysates and co-immunoprecipitation was as previously described (Aurelian et al, 2016; June et al, 2015; Liu et al, 2011). RAW246.7 cells grown on T-75 flasks (n=5 flasks/group) were lysed with radioimmunoprecipitation (RIPA) buffer [20 mM Tris-HCl (pH 7.4), […], 1% Nonidet P-40 (Sigma, St. Louis, Mo., USA), 0.1% SDS (sodium dodecyl sulfate), 0.5% sodium deoxycholate] supplemented with protease and phosphatase inhibitor cocktails (Sigma). The total protein was determined by the bicinchoninic acid assay (BCA, Thermo Fisher Scientific, Waltham, Mass., USA, Cat. #23228 and Cat. #1859078). The proteins (100 μg/lane) were resolved by SDS-polyacrylamide gel electrophoresis using freshly prepared 16×18 cm gels and transferred to polyvinylidene fluoride membranes (PVDF, Bio-Rad, Cat. #162-0177). Blots were blocked with 5% Blotting-Grade Blocker (Bio-Rad, Cat. #1706404; for non-phosphorylated primary antibodies) or 5% BSA (for phosphorylated primary antibodies) for 2 hrs at room temperature (RT) and exposed to primary antibody overnight (4° C.), followed by horseradish peroxidase-labeled secondary antibodies for 1 h (room temp), immunoreactive bands were visualized with the Plus-ECL kit reagents (Perkin Elmer, Waltham, Mass., USA, Cat. #NEL105001EA) followed by exposure to high-performance chemiluminescence film (Hyperfilm ECL; Amersham). Quantitation was by densitometric scanning with a Bio-Rad GS-700 imaging densitometer. Blots were stripped and re-probed with different primary antibodies 3-5 times. Each densitometric measurement was divided by the corresponding β-Actin densitometric measurement and the results [n=5/group] are expressed as the mean β-Actin-adjusted densitometric units±SEM.
# To examine whether the neurosteroids inhibit the LPS-activated TLR4 signal, RAW264.7 cells were treated with IPS (1 μg/mi; 24 hrs) in the absence or presence of 3α,5α-THP (0.5 μM, 1 μM) or pregnenolone (0.5 μM, 1 μM), and ceil extracts were assayed for expression of MyD88-dependent pathway members, by immunoblotting with antibodies to pTAK1, monocyte chemotactic protein (MCP-1), TRAF6, TLR4, and transcription factor NFκB p50 (Chattopadhyay S, et al. (2014). Cytokine Growth Factor Rev 25(5): 533-541; Irie T, et al. (2000). FEBS Lett 467(2-3): […]; Lu Y C, et al. (2008). Cytokine 42(2): 145-151).
# Because the neurosteroids had relatively little effect on NFκB p50, the possibility that inhibition of other transcription factors and proinflammatory responses may be involved was considered. RAW246.7 ceils were treated as described above and protein extracts were immunoblotted with antibodies to phospho-NF-κB p65, pCREB, the proinflammatory cytokine tumor necrosis factor alpha (TNFα), and high mobility group box-1 (HMGB1), a highly conserved non-histone chromosomal protein, the translocation of which from the intra- to extra-cellular environment is a critical event in inflammatory responses. Indeed, HMGB1 is currently recognized as a cytokine secreted from activated macrophages and other inflammatory cells during the innate immune response and if is believed to function as a TLR4 ligand. […]
smiles,measurement,setting,value
"CC(=O)[C@H]1CC[C@H]2[C@@H]3CC[C@H]4C[C@H](O)CC[C@]4(C)[C@H]3CC[C@]12C [3α,5α-THP, (3α,5α)3-hydroxypregnan-20-one]",effect on TLR4 expression,,did not affect
same,"inhibition of LPS-increased pTAK1, TRAF6, NFκB p50, phospho-NF-κB p65, pCREB, HMGB1, MCP-1 and TNFα (overall)",,~80%
same,inhibition at 0.5 µM,"0.5 μM, read-out: inhibition of LPS-induced NFκB p50",19.8 ± 7.9%
same,inhibition at 0.5 µM,"0.5 μM, read-out: inhibition of the effect of LPS activation of TLR4 on MCP-1",81.5 ± 3.8%
same,inhibition at 0.5 µM,"0.5 μM, read-out: inhibition of the effect of LPS activation on TRAF6",54.5 ± 5.5%
same,inhibition at 0.5 µM,"0.5 μM, read-out: inhibition of the effect of LPS activation on pTAK1",37.8 ± 7.7%
same,inhibition at 0.5 µM,"0.5 μM, read-out: inhibition of the effect of LPS on HMGB1",88.9 ± 11%
same,inhibition at 0.5 µM,"0.5 μM, read-out: inhibition of the effect of LPS on TNFα",77.8 ± 7.3%
same,inhibition at 0.5 µM,"0.5 μM, read-out: inhibition of the effect of LPS on pCREB",97.2 ± 1.9%
same,inhibition at 0.5 µM,"0.5 μM, read-out: inhibition of the effect of LPS on phospho-NF-κB p65",90.1 ± 8.5%
same,inhibition at 1 µM,"1.0 μM, read-out: inhibition of LPS-induced NFκB p50",38.3 ± 7.3%
same,inhibition at 1 µM,"1.0 μM, read-out: inhibition of the effect of LPS activation of TLR4 on MCP-1",85.2 ± 4.5%
same,inhibition at 1 µM,"1.0 μM, read-out: inhibition of the effect of LPS activation on TRAF6",55.3 ± 2.6%
same,inhibition at 1 µM,"1.0 μM, read-out: inhibition of the effect of LPS activation on pTAK1",71.7 ± 3.6%
same,inhibition at 1 µM,"1.0 μM, read-out: inhibition of the effect of LPS on HMGB1",58.6 ± 5.5%
same,inhibition at 1 µM,"1.0 μM, read-out: inhibition of the effect of LPS on TNFα",70.9 ± 3.5%
same,inhibition at 1 µM,"1.0 μM, read-out: inhibition of the effect of LPS on pCREB",94.8 ± 3.4%
same,inhibition at 1 µM,"1.0 μM, read-out: inhibition of the effect of LPS on phospho-NF-κB p65",88.9 ± 10.8%
CC(=O)[C@H]1CC[C@H]2[C@@H]3CC=C4C[C@@H](O)CC[C@]4(C)[C@H]3CC[C@]12C [pregnenolone],effect on TLR4 expression,,did not affect
same,inhibition of LPS-induced NFκB p50,0.5 μM,25.3±7.4%
same,inhibition of the effect of LPS activation of TLR4 on MCP-1,0.5 μM,77.3±7.3%
same,inhibition of the effect of LPS activation on TRAF6,0.5 μM,73.7±1.3%
same,inhibition of the effect of LPS activation on pTAK1,0.5 μM,76.2±2.0%
same,inhibition of the effect of LPS on HMGB1,0.5 μM,52.0±9.8%
same,inhibition of the effect of LPS on TNFα,0.5 μM,61.7±3.6%
same,inhibition of the effect of LPS on pCREB,0.5 μM,84.8±9.9%
same,inhibition of the effect of LPS on phospho-NF-κB p65,0.5 μM,86.7±7.3%
same,inhibition of LPS-induced NFκB p50,1.0 μM,28.8±6.7%
same,inhibition of the effect of LPS activation of TLR4 on MCP-1,1.0 μM,85.8±4.4%
same,inhibition of the effect of LPS activation on TRAF6,1.0 μM,88.5±6.8%
same,inhibition of the effect of LPS activation on pTAK1,1.0 μM,95.2±2.5%
same,inhibition of the effect of LPS on HMGB1,1.0 μM,57.5±12.8%
same,inhibition of the effect of LPS on TNFα,1.0 μM,65.1±7.7%
same,inhibition of the effect of LPS on pCREB,1.0 μM,83.7±8.9%
same,inhibition of the effect of LPS on phospho-NF-κB p65,1.0 μM,88.1±5.5%
same,"inhibition of LPS-increased pTAK1, TRAF6, NFκB p50, phospho-NF-κB p65, pCREB, HMGB1, MCP-1 and TNFα (overall)",,~80%

# — patent US20210205329A1 (The University of North Carolina at Chapel Hill, priority 2018, published 2021)
